Earlier results on one compound are cited in patent publication US20250332117A1, “Thin Films with Peroxides and Uses Thereof” (Silverpeutics, Inc., priority 2024, published 2025).

Data set [1] relates to cells. The note with it: general statement, no source given.
Data set [2] relates to bacteria. The settings on record: general statement, no source given.

For `OO` [peroxide, Hydrogen peroxide], the “peroxide concentration at which cell killing is observed” value in data set [1] was “above 500 μM”. The “peroxide concentration at which partial bacteriostatic effects are observed” value in data set [2] was 25 to 50 µM.
